Assay results from US8889701B1, “Substituted (S)-(2R,3R,5R)-3-hydroxy-(5-pyrimidin-1-yl)tetrahydrofuran-2-ylmethyl aryl phosphoramidate” (Alla Chem, LLC, priority 2013, dated 2014).
pEC50: −log10 of the molar value.

tested on: HCV replicon (genotype 1b, Con1 isolate) in human hepatoma cell line Huh7; test: HCV replicon assay (antiviral activity, anti-HCV core ELISA readout); type: cell-based; conditions: Hepatitis C virus, Huh-7, 72 h, read-out: EC50, activity against HCV genotype 1b
Description: The HCV replicon assay was used to determine the antiviral activity of substituted phosphoramidic acid esters of the general formula 1, 1.1, 1.2, 2, 2.1, and 2.2 (test compounds). The test cell line used in the HCV Replicon Assay was a human hepatoma cell line Huh7 incorporating the HCV replicon (genotype 1b, Con1 isolate). 96-well plates were seeded with cells at a density of 7.5×10^3 cells per well in 50 μl of assay media. Test compound stock solution was made up freshly in assay medium (DMEM 1×, Cellgro; cat. #10-013-CV) as a 2× stock. A total of 11 serial 3-fold dilutions of test compounds were prepared from the 2× stock in assay media ranging from 20 nM-0.2 pM final concentrations. At least 4 hours after cells were seeded, compound treatment was initiated by adding 50 μl of compound dilution to the plates. […] The final DMSO concentration was 0.5%. Cells and inhibitors incubated for 3 days at 37° C./5% CO2. Media was removed from the plates via gentle tapping. Cells were fixed with 100 μl 1:1 acetone:methanol for 1 minute, washed three times with PBS buffer, and then blocked with 150 μl/well 10% Fetal Bovine Serum (FBS) in PBS for 1 hour at room temperature. Cells were washed three times with PBS buffer, and incubated with 100 μl/well anti-hepatitis C core mAb (Affinity BioReagents; cat. # MA1-080, 1 mg/ml stock diluted 1:4,000 in 10% FBS-PBS) for 2 hours at 37° C. Cells were washed three times with PBS and incubated with 100 μl/well HRP-Goat Anti-Mouse antibody (diluted 1:3.500 in 10% FBS-PBS) for 1 hour at 37° C. Cells were washed three times with PBS and developed with 100 μl/well OPD solution (1 OPD tablet+12 ml citrate/phosphate buffer+5 μl 30% H2O2 per plate) for 30 minutes in the dark at room temperature. The reaction was stopped with 100 μl/well of 2N H2SO4, and absorbance measured at A490 X on a Victor^3 V 1420 multilabel counter (Perkin Elmer). The EC50 values were calculated for test compounds from the resulting best-fit equations determined by Xlfit software.

Row | SMILES | pEC50
1 | CN1CCC(N[P@](=O)(OC[C@H]2O[C@@H](n3ccc(N)nc3=O)C(F)(F)[C@@H]2O)Oc2ccccc2)C1=O (some centres unmarked) [2.2.(1)] | 6.66
2 | CC(=O)O[C@@H]1[C@@H](COP(=O)(N[C@H]2CCOC2=O)Oc2ccccc2)O[C@@H](n2ccc(N)nc2=O)C1(F)F (stereo partly drawn) [1.2.(2), (2R,3R,5R)-5-(4-amino-2-oxopyrimidin-1(2H)-yl)-4,4-difluoro-2-((((S)-2-oxotetrahydrofuran-3-ylamino)(phenoxy)phosphoryloxy)methyl)tetrahydrofuran-3-yl acetate] | 7.57
3 | C[C@@]1(F)[C@H](O)[C@@H](COP(=O)(N[C@H]2CCOC2=O)Oc2ccccc2)O[C@H]1n1ccc(=O)[nH]c1=O (stereo partly drawn) [1.1.(2), ((2R,3R,4R,5R)-5-(2,4-dioxo-3,4-dihydropyrimidin-1(2H)-yl)-4-fluoro-3-hydroxy-4-methyltetrahydrofuran-2-yl)methyl phenyl (S)-2-oxotetrahydrofuran-3-ylphosphoramidate] | 6.56
4 | O=C1OCCC1NP(=O)(OC[C@H]1O[C@@H](n2ccc(=O)[nH]c2=O)C(F)(F)[C@@H]1O)Oc1ccccc1 (stereo partly drawn) [1.1.(1), ((2R,3R,5R)-5-(2,4-dioxo-3,4-dihydropyrimidin-1(2H)-yl)-4,4-difluoro-3-hydroxytetrahydrofuran-2-yl)methyl phenyl 2-oxotetrahydrofuran-3-ylphosphoramidate] | 6.34
5 | CN1CCCC(NP(=O)(OC[C@H]2O[C@@H](n3ccc(NC(=O)OCc4ccccc4)nc3=O)C(F)(F)[C@@H]2OC(=O)OCc2ccccc2)Oc2ccccc2)C1=O (stereo partly drawn) [1(7), benzyl 1-((2R,4R,5R)-4-(benzyloxycarbonyloxy)-3,3-difluoro-5-(((1-methyl-2-oxopiperidin-3-ylamino)(phenoxy)phosphoryloxy)methyl)tetrahydrofuran-2-yl)-2-oxo-1,2-dihydropyrimidin-4-ylcarbamate] | 6.26
6 | CN1CCCC(NP(=O)(OC[C@H]2O[C@@H](n3ccc(N)nc3=O)C(F)(F)[C@@H]2O)Oc2ccccc2)C1=O (stereo partly drawn) [1(8), ((2R,3R,5R)-5-(4-amino-2-oxopyrimidin-1(2H)-yl)-4,4-difluoro-3-hydroxytetrahydrofuran-2-yl)methyl phenyl 1-methyl-2-oxopiperidin-3-ylphosphoramidate] | 6.06
7 | CC(=O)Nc1ccn([C@@H]2O[C@H](CO[P@@](=O)(N[C@H]3CCOC3=O)Oc3ccccc3)[C@@H](OC(C)=O)C2(F)F)c(=O)n1 [1(4), (2R,3R,5R)-5-(4-acetamido-2-oxopyrimidin-1(2H)-yl)-4,4-difluoro-2-(((S)—((S)-2-oxotetrahydrofuran-3-ylamino)(phenoxy)phosphoryloxy)methyl)tetrahydrofuran-3-yl acetate] | 7.38
8 | Nc1ccn([C@@H]2O[C@H](COP(=O)(N[C@H]3CCOC3=O)Oc3ccccc3)[C@@H](O)C2(F)F)c(=O)n1 (some centres unmarked) [1.2.(1)] | 7.70
9 | CC(C)OC(=O)[C@H](C)NP(=O)(OC[C@H]1O[C@@H](n2ccc(=O)[nH]c2=O)[C@](C)(F)[C@@H]1O)Oc1ccccc1 (some centres unmarked) [PSI-7851, reference compound] | 7.23
10 | CN1CCC(NP(=O)(OC[C@H]2O[C@@H](n3ccc(=O)[nH]c3=O)C(F)(F)[C@@H]2O[Si](C)(C)C(C)(C)C)Oc2ccccc2)C1=O (stereo partly drawn) [1.1.(4), ((2R,3R,5R)-3-(tert-butyldimethylsilyloxy)-5-(2,4-dioxo-3,4-dihydropyrimidin-1(2H)-yl)-4,4-difluorotetrahydrofuran-2-yl)methyl phenyl 1-methyl-2-oxopyrrolidin-3-ylphosphoramidate] | 7.39

tested on: HCV replicon (genotype 1b, Con1 isolate) in human hepatoma cell line Huh7; test: not given; conditions: literature value, Murakami et al., J. Biol. Chem. 285(45), 34337-34347 (2010); read-out: EC50 of known inhibitor PSI-7851 (literature); cited from earlier work

Row | SMILES | pEC50
11 | CC(C)OC(=O)[C@H](C)NP(=O)(OC[C@H]1O[C@@H](n2ccc(=O)[nH]c2=O)[C@](C)(F)[C@@H]1O)Oc1ccccc1 (some centres unmarked) [PSI-7851, reference compound] | 7.12
